Measured values taken from patent US8333966B2, “CD37 immunotherapeutics and uses thereof” (Emergent Product Development Seattle, LLC, priority 2008, dated 2012).
“Also recorded” adds a separate entry of the source. Marks after values point to notes of the source that are not given here.

Columns and labels:
[1] = test system: DOHH2 human tumor xenografts; conditions: for Median Survival Time: CAS024 10 μg IV days 0, 4, 8, Bendamustine 10 mg/kg IP days 0, 2, 4, 7, 9, alone or combined; for clinical signs of toxicity: CAS024 10 μg IV, Bendamustine 10 mg/kg IP
Experimental: Establishment of tumor xenografts and sorting into treatment groups. […] The tumor-bearing mice were sorted into five groups with equivalent mean tumor volumes (n=15 per group; 3 cages of 5 mice for each group).
In vivo treatment. Groups of mice were treated with an injection of 0.2 mL of PBS containing 10 μg huIgG (days 0, 4, 8 IV), 10 μg CAS024 (days 0, 4, 8 IV), 10 mg/kg Bendamustine (0, 2, 4, 7, 9 IP), or 10 μg CAS024 (days 0, 4, 8 IV) AND 10 mg/kg Bendamustine (0, 2, 4, 7, 9 IP).
Monitoring and endpoints. Mice were monitored daily by visual inspection. […] Tumor volumes were calculated as described above.

[2] = SMIP expression in transfected HEK293 cells, day 7 supernatants titered with Protein A sensor; conditions: supernatants day 7
From the text: CAS-024 and other CD37-specific binding SMIP molecules were produced by recombinant DNA technology and transfected into HEK293 cells for 7 days. Cell culture supernatants were harvested on day 7 and titered using Octec Q Protein A sensor.

CD37 on BJAB cells = target: T1, CD37 on BJAB cells (Homo sapiens, UniProt P11049); experiment: Competitive binding / cross blocking of FITC-conjugated anti-CD37 reagents on BJAB cells; conditions: unlabeled blocking reagent
T1 construct: endogenous in cells; host or cells: BJAB cells
T1 sequence (P11049 1-281): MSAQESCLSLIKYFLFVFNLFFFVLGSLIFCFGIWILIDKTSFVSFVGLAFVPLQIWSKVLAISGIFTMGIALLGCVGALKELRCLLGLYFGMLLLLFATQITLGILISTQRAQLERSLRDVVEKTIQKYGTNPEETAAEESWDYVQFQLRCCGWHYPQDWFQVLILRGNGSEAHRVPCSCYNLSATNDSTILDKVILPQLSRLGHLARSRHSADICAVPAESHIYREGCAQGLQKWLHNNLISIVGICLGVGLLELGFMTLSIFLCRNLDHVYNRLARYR
Experimental: FITC labeled antibody conjugates were titrated from 10 ng/mL to 10 μg/mL in an initial binding study to determine the optimal amount to use in the blocking studies. The level chosen was just below saturating amounts, and was kept constant in the subsequent assays, while levels of blocking antibody were increased over a 10-fold range. Data were plotted as percent of maximal binding versus concentration of blocking antibody, so that higher levels indicate less efficient blocking, while lower levels indicate more efficient blocking activity.
For competitive binding assays, 2.5×10^5 BJAB cells were incubated in 96-well V-bottom plates in staining media (PBS with 2% mouse sera) with the FITC-conjugated anti-CD37 mAbs at 1.25 μg/mL in the presence of unconjugated anti-CD37 MAb at the indicated concentrations (2.5, 1.25, 0.6, or 0.3 μg/ml) or staining media for 45 minutes on ice in the dark. Blocking antibodies and FITC labeled antibody conjugates were added to reactions prior to addition of cells. The cells were then washed […] with PBS and fixed with 1% paraformaldehyde (USB, Cleveland, Ohio). The treated cells were analyzed by flow cytometry using a FACsCalibur instrument and CellQuest software (BD Biosciences, San Jose, Calif.). […]

[3] = test system: human tumor (DOHH2) xenograft; experiment: Single agent efficacy in established DOHH2 xenograft model in SCID mice; assay type: in vivo; conditions: for Death (other than for Tumor Size Sacrifice) / Median Survival Time: 200 μg IP days 0, 4, 8, cumulative 600 μg; for mean tumor volume compared with human IgG treated group: day 4 through day 11
Experimental: Mice were monitored daily by visual inspection. […] Tumor volumes were calculated as described above. Tumor volumes on the last day that all mice were alive in each group were also expressed in terms of tumor volumes relative to day 0, using the formula: Relative tumor volume on day of interest=(volume on day of interest−volume on day 0)volume on day 0

[4] = test system: human tumor (DOHH2) xenograft; experiment: Dose response in established subcutaneous DOHH2 xenograft model in SCID mice; assay type: in vivo
Experimental: Mice were monitored daily by visual inspection. […] Tumor volumes were calculated as described above.

[5] = SMIP expression in transfected CHO cells, supernatants titered with Protein A sensor; parameters: species or system Chinese Hamster Ovary (CHO); conditions: shake flasks, culture supernatants
Experimental: CAS-024 and other CD37-specific binding SMIP molecules were cloned into a Chinese Hamster Ovary (CHO) mammalian cell expression system. Transfected CHO cells that produced the SMIP molecules were cultured in shake flasks and harvested cell culture supernatants were titered using Octec Q Protein A sensor.

CD37 on Ramos cells = target: T2, CD37 on Ramos cells (Homo sapiens, UniProt P11049); experiment: FMAT competition assay against FMAT Blue labeled CAS-006 for binding to Ramos cells
T2 construct: endogenous in cells; host or cells: Ramos cells
T2 sequence (P11049 1-281): T1 sequence (P11049 1-281)
From the text: A competition assay was used to compare the binding affinity of different anti-CD37 specific small modular immunopharmaceutical (SMIP) molecules to CD-37 found on Ramos cells (a B-lymphoblastoid cell line derived from a Burkitt lymphoma). An SEC purified chimeric anti-CD37 SMIP molecule (CAS-006, SEQ ID NO:247) was labeled with the FMAT Blue® fluorescence dye (Applied Biosystems) and used as the standard to compete with purified unlabeled chimeric anti-CD37 SMIP molecule (positive control) and purified unlabeled humanized anti-CD37 SMIP test molecules. […] The plates were incubated at room temperature for 30 min and read on an 8200 Cellular Detection System (Applied Biosystems) gated for middle cell size and low signal.
A competition assay as described in Example 4 was used to compare the binding affinity of different mouse-human hybrid anti-CD37 SMIP molecules compared to CAS-024 binding to Ramos cells. An SEC purified chimeric anti-CD37 SMIP molecule (CAS-006, SEQ ID NO:247) was labeled with the FMAT Blue® fluorescence dye (Applied Biosystems) and used as the standard to compete with purified unlabeled chimeric anti-CD37 SMIP molecule (CAS-006, positive control) and purified unlabeled humanized anti-CD37 SMIP test molecules—CAS-002 (SEQ ID NO:48), CAS-003 (SEQ ID NO:52), CAS-014 (SEQ ID NO:251), CAS-017 (SEQ ID NO:252), and CAS-024 (SEQ ID NO:253).

[6] = 3 μg IP days 0, 4, 8, cumulative 9 μg
[7] = 10 μg IP days 0, 4, 8, cumulative 30 μg
[8] = 30 μg IP days 0, 4, 8, cumulative 90 μg
[9] = 100 μg IP days 0, 4, 8, cumulative 300 μg

Cn1c(CCCC(=O)O)nc2cc(N(CCCl)CCCl)ccc21 [Bendamustine, 4-[5-[Bis(2-chloroethyl)amino]-1-methylbenzimidazol-2-yl]butanoic acid, reference compound]
Median Survival Time [1]: 17 days | clinical signs of toxicity [1]: scruffy coats and diarrhea

CAS-006: chimeric anti-CD37 SMIP protein (mVLmVH) with variable regions from mouse mAb G28-1, SEQ ID NO:247
Protein Titer [2]: 9.3 µg/mL | blocking activity (inhibition of binding of FITC-conjugated anti-CD37) (CD37 on BJAB cells): highest level of blocking activity

G28-1 VH (M99F, Y102S)-VL (T25A) scFv (SSC-P) H WCH2 WCH3 [CAS-024]
Death (other than for Tumor Size Sacrifice) [3]: 1/15^f | Median Survival Time [3]: Undefined^d, e | mean tumor volume compared with human IgG treated group [3]: significantly lower | Median Survival Time [1]: 17^b Days | clinical signs of toxicity [1]: No clinical signs of toxicity | Death (Not Due to Large Tumor Volume) [4, 6]: 0/14 | Median Survival Time [4, 6]: 19 days | Death (Not Due to Large Tumor Volume) [4, 7]: 0/14 | Median Survival Time [4, 7]: 28 days | Death (Not Due to Large Tumor Volume) [4, 8]: 0/14 | Median Survival Time [4, 8]: 35 days | Death (Not Due to Large Tumor Volume) [4, 9]: 1/14^h | Median Survival Time [4, 9]: Undefined | Death (Not Due to Large Tumor Volume) ([4]; 200 μg IP days 0, 4, 8, cumulative 600 μg): 0/14 | effect on the growth of DOHH2 tumors ([4]; 3 to 200 μg IP days 0, 4, 8): dose-dependent inhibitory effect | Protein Titer Range [5]: 500 to 650 µg/mL | Protein Titer [2]: 12.7 µg/mL | greater affinity for CD37 than humanized VLVH SMIP molecules with 16 amino acid linker (CD37 on Ramos cells; Ramos cells): ≤ 4 fold | affinity for CD37 compared with parent chimeric CAS-006 (CD37 on Ramos cells; competition with labeled CAS-006, Ramos cells): substantially the same affinity; also recorded: same binding affinity

Rituxan: anti-CD20 treatment used as single agent comparator [reference compound]
Death (other than for Tumor Size Sacrifice) [3]: 0/15 | Median Survival Time [3]: 43 days | mean tumor volume compared with human IgG treated group [3]: significantly lower
